Results taken from ChEMBL document CHEMBL1141167, “Antitumor activity of new substituted 3-(5-imidazo[2,1-b]thiazolylmethylene)-2-indolinones and study of their effect on the cell cycle” (2005).
Where “and” joins values, the source holds several entries; their conditions need not be identical. Identical values can stand only once.

Experiments:
[1] = tested on: CNS cell; experiment: Growth inhibitory concentration dissolved in DMSO against human CNS cell line at 10E-4 M concentration; format: functional
[2] = tested on: Colon cell; experiment: Total growth inhibition of human Colon cell line at 10E-4 M concentration; format: functional; parameters: unit not given here
[3] = tested on: NSCLC; experiment: Total growth inhibition of human NSCLC cell line at 10E-4 M concentration; format: functional
[4] = tested on: Breast carcinoma cell; experiment: Total growth inhibition of human Breast cell line at 10E-4 M concentration; format: functional
[5] = tested on: Panel NCI-60 (60 carcinoma cell lines); experiment: Total growth inhibition of human MG-MID cell line at 10E-4 M concentration; format: functional
[6] = tested on: Ovarian carcinoma cell; experiment: Total growth inhibition of human Ovarian cell line at 10E-4 M concentration; format: functional
[7] = tested on: Melanoma cell; experiment: Total growth inhibition of human Melanoma cell line at 10E-4 M concentration; format: functional
[8] = tested on: Prostate cell; experiment: Total growth inhibition of human Prostate cell line at 10E-4 M concentration; format: functional
[9] = tested on: Prostate cell; experiment: Growth inhibitory concentration dissolved in DMSO against human Prostate cell line at 10E-4 M concentration; format: functional
[10] = tested on: Ovarian carcinoma cell; experiment: Growth inhibitory concentration dissolved in DMSO against human Ovarian cell line at 10E-4 M concentration; format: functional
[11] = tested on: Melanoma cell; experiment: Growth inhibitory concentration dissolved in DMSO against human Melanoma cell line at 10E-4 M concentration; format: functional
[12] = tested on: Colon cell; experiment: Growth inhibitory concentration dissolved in DMSO against human Colon cell line at 10E-4 M concentration; format: functional
[13] = tested on: NSCLC; experiment: Growth inhibitory concentration dissolved in DMSO against human NSCLC cell line at 10E-4 M concentration; format: functional; parameters: unit not given here
[14] = tested on: Renal cell; experiment: Growth inhibitory concentration dissolved in DMSO against human Renal cell line at 10E-4 M concentration; format: functional; parameters: unit not given here
[15] = tested on: Breast carcinoma cell; experiment: Growth inhibitory concentration dissolved in DMSO against human Breast cell line at 10E-4 M concentration; format: functional
[16] = tested on: Panel NCI-60 (60 carcinoma cell lines); experiment: Growth inhibitory concentration dissolved in DMSO against human MG-MID cell line at 10E-4 M concentration; format: functional
[17] = tested on: CNS cell; experiment: Cytotoxic effect dissolved in DMSO against CNS cell line at 10E-4 M concentration; format: functional, Homo sapiens
[18] = tested on: Colon cell; experiment: Cytotoxic effect dissolved in DMSO against Colon cell line at 10E-4 M concentration; format: functional, Homo sapiens
[19] = tested on: NSCLC; experiment: Cytotoxic effect dissolved in DMSO against NSCLC cell line at 10E-4 M concentration; format: functional, Homo sapiens
[20] = tested on: HT-29; experiment: Percentage of Cells after administration of compound dissolved in DMSO (10e-4 M) towards colon adenocarcinoma cell line HT-29 in G2/M Phase after 24 Hours of Treatment [control = 10]; format: functional, Homo sapiens
[21] = tested on: HT-29; experiment: Percentage of Cells after administration of compound dissolved in DMSO (10e-5 M) towards colon adenocarcinoma cell line HT-29 in G2/M Phase after 24 Hours of Treatment [control = 10]; format: functional, Homo sapiens
[22] = tested on: HT-29; experiment: Percentage of Cells after administration of compound dissolved in DMSO (10e-6 M) towards colon adenocarcinoma cell line HT-29 in G2/M Phase after 24 Hours of Treatment [control = 10]; format: functional, Homo sapiens
[23] = tested on: Renal cell; experiment: Cytotoxic effect dissolved in DMSO against Renal cell line at 10E-4 M concentration; format: functional, Homo sapiens
[24] = tested on: Breast carcinoma cell; experiment: Cytotoxic effect dissolved in DMSO against Breast cell line at 10E-4 M concentration; format: functional, Homo sapiens
[25] = tested on: Panel NCI-60 (60 carcinoma cell lines); experiment: Cytotoxic effect dissolved in DMSO against MG-MID cell line at 10E-4 M concentration; format: functional, Homo sapiens
[26] = tested on: Ovarian carcinoma cell; experiment: Cytotoxic effect dissolved in DMSO against Ovarian cell line at 10E-4 M concentration; format: functional, Homo sapiens
[27] = tested on: Melanoma cell; experiment: Cytotoxic effect dissolved in DMSO against Melanoma cell line at 10E-4 M concentration; format: functional, Homo sapiens
[28] = tested on: HT-29; experiment: Percentage of Cells after administration of compound dissolved in DMSO (10e-7M) towards colon adenocarcinoma cell line HT-29 in G2/M Phase after 24 Hours of Treatment [control = 10]; format: functional, Homo sapiens
[29] = tested on: HT-29; experiment: Percentage of Cells after administration of compound dissolved in DMSO (10e-8 M) towards colon adenocarcinoma cell line HT-29 in G2/M Phase after 24 Hours of Treatment [control = 10]; format: functional, Homo sapiens
[30] = tested on: Prostate cell; experiment: Cytotoxic effect dissolved in DMSO against Prostate cell line at 10E-4 M concentration; format: functional, Homo sapiens
[31] = tested on: CNS cell; experiment: Growth inhibitory concentration dissolved in DMSO against human CNS cell line at 10E-3 M concentration; format: functional
[32] = tested on: Colon cell; experiment: Growth inhibitory concentration dissolved in DMSO against human Colon cell line at 10E-3 M concentration; format: functional
[33] = tested on: CNS cell; experiment: Total growth inhibition of human CNS cell line at 10E-3 M concentration; format: functional
[34] = tested on: Colon cell; experiment: Total growth inhibition of human Colon cell line at 10E-3 M concentration; format: functional
[35] = tested on: NSCLC; experiment: Total growth inhibition of human NSCLC cell line at 10E-3 M concentration; format: functional
[36] = tested on: Renal cell; experiment: Total growth inhibition of human Renal cell line at 10E-3 M concentration; format: functional
[37] = tested on: Panel NCI-60 (60 carcinoma cell lines); experiment: Total growth inhibition of human MG-MID cell line at 10E-3 M concentration; format: functional
[38] = tested on: Breast carcinoma cell; experiment: Total growth inhibition of human Breast cell line at 10E-3 M concentration; format: functional
[39] = tested on: Leukemia cell; experiment: Total growth inhibition of human Leukemia cell line at 10E-3 M concentration; format: functional
[40] = tested on: Melanoma cell; experiment: Total growth inhibition of human Melanoma cell line at 10E-3 M concentration; format: functional
[41] = tested on: Ovarian carcinoma cell; experiment: Total growth inhibition of human Ovarian cell line at 10E-3 M concentration; format: functional
[42] = tested on: Prostate cell; experiment: Total growth inhibition of human Prostate cell line at 10E-3 M concentration; format: functional
[43] = tested on: Leukemia cell; experiment: Growth inhibitory concentration dissolved in DMSO against human leukemia cell line at 10E-3 M concentration; format: functional
[44] = tested on: Melanoma cell; experiment: Growth inhibitory concentration dissolved in DMSO against human Melanoma cell line at 10E-3 M concentration; format: functional
[45] = tested on: Prostate cell; experiment: Growth inhibitory concentration dissolved in DMSO against human Prostate cell line at 10E-3 M concentration; format: functional
[46] = tested on: NSCLC; experiment: Growth inhibitory concentration dissolved in DMSO against human NSCLC cell line at 10E-3 M concentration; format: functional
[47] = tested on: Renal cell; experiment: Growth inhibitory concentration dissolved in DMSO against human Renal cell line at 10E-3 M concentration; format: functional
[48] = tested on: Breast carcinoma cell; experiment: Growth inhibitory concentration dissolved in DMSO against human Breast cell line at 10E-3 M concentration; format: functional
[49] = tested on: Panel NCI-60 (60 carcinoma cell lines); experiment: Growth inhibitory concentration dissolved in DMSO against human MG-MID cell line at 10E-3 M concentration; format: functional
[50] = tested on: Ovarian carcinoma cell; experiment: Growth inhibitory concentration dissolved in DMSO against human Ovarian cell line at 10E-3 M concentration; format: functional
[51] = tested on: CNS cell; experiment: Cytotoxic effect dissolved in DMSO against CNS cell line at 10E-3 M concentration; format: functional, Homo sapiens
[52] = tested on: Colon cell; experiment: Cytotoxic effect dissolved in DMSO against Colon cell line at 10E-3 M concentration; format: functional, Homo sapiens
[53] = tested on: NSCLC; experiment: Cytotoxic effect dissolved in DMSO against NSCLC cell line at 10E-3 M concentration; format: functional, Homo sapiens
[54] = tested on: Breast carcinoma cell; experiment: Cytotoxic effect dissolved in DMSO against Breast cell line at 10E-3 M concentration; format: functional, Homo sapiens
[55] = tested on: Panel NCI-60 (60 carcinoma cell lines); experiment: Cytotoxic effect dissolved in DMSO against MG-MID cell line at 10E-3 M concentration; format: functional, Homo sapiens
[56] = tested on: Ovarian carcinoma cell; experiment: Cytotoxic effect dissolved in DMSO against Ovarian cell line at 10E-3 M concentration; format: functional, Homo sapiens
[57] = tested on: Leukemia cell; experiment: Cytotoxic effect dissolved in DMSO against Leukemia cell line at 10E-3 M concentration; format: functional, Homo sapiens
[58] = tested on: Melanoma cell; experiment: Cytotoxic effect dissolved in DMSO against Melanoma cell line at 10E-3 M concentration; format: functional, Homo sapiens
[59] = tested on: Prostate cell; experiment: Cytotoxic effect dissolved in DMSO against Prostate cell line at 10E-3 M concentration; format: functional, Homo sapiens
[60] = tested on: Renal cell; experiment: Cytotoxic effect dissolved in DMSO against Renal cell line at 10E-3 M concentration; format: functional, Homo sapiens

For `Cc1cn2c(/C=C3/C(=O)Nc4ccc(Cl)cc43)c(C)nc2s1`, the “pGI50 (-log GI50, M)” value [1] was 6.13, the TGI [2] was 5.06 and 5.08 and the TGI [3] was 4.65. For the same compound, the TGI [4] was 4.85, the TGI [5] was 4.81 and the TGI [6] was 4.82. For the same compound, the TGI [7] was 4.6, the TGI [8] was 5.62 and the “pGI50 (negative log molar GI50)” value [9] was 6.98. The “pGI50 (negative log of GI50 in M)” value [10] was 5.91, the “pGI50 (-log molar GI50)” value [11] was 6.21 and the “pGI50 (negative log of molar GI50)” value [12] was 6.72. For the same compound, the GI50 [13] was 6.17, the GI50 [14] was 6.54 and the “pGI50 (-log GI50, M)” value [15] was 6.51. It also gave a GI50 [16] of -6.42, an LC50 [17] of 4.16 and an LC50 [18] of 4.34. It also gave an LC50 [19] of 4.16, an Activity [20] of 61.6% and an Activity [21] of 86.2%. The Activity [22] was 72%, the LC50 [23] was 4.06 and the LC50 [24] was 4.02. The LC50 [25] was 4.15, the LC50 [26] was 4.3 and the LC50 [27] was 4.06. The Activity [28] was 9.7%, the Activity [29] was 11.1% and the LC50 [30] was 4.36.
`CC[C@]1(O)C[C@H]2CN(CCc3c([nH]c4ccccc34)[C@@](C(=O)OC)(c3cc4c(cc3OC)N(C=O)[C@H]3[C@@](O)(C(=O)OC)[C@H](OC(C)=O)[C@]5(CC)C=CCN6CC[C@]43[C@@H]65)C2)C1.O=S(=O)(O)O` [VINCRISTINE SULFATE] gave a pGI50 [31] of 6.9, a pGI50 [32] of 7 and a pTGI [33] of 5.2. For the same compound, the pTGI [34] was 5.4, the pTGI [35] was 4.8 and the pTGI [36] was 4.7. The pTGI [37] was 5, the pTGI [38] was 5.1 and the pTGI [39] was 4.8. For the same compound, the pTGI [40] was 5.1, the pTGI [41] was 4.7 and the pTGI [42] was 5.2. The pGI50 [43] was 7, the pGI50 [44] was 6.8 and the pGI50 [45] was 6.9. The pGI50 [46] was 6.6, the pGI50 [47] was 6.5 and the pGI50 [48] was 6.5. The pGI50 [49] was 6.7, the pGI50 [50] was 6.5 and the LC50 [51] was 3.7. It also gave an LC50 [52] of 4.1, an LC50 [53] of 3.6 and an LC50 [54] of 3.5. The LC50 [55] was 3.6, the LC50 [56] was 3.5 and the LC50 [57] was 3.2. It also gave an LC50 [58] of 3.6, an LC50 [59] of 3.5 and an LC50 [60] of 3.6.
